The values that follow come from ChEMBL document CHEMBL3525955, “Glucuronidation of the red clover isoflavone irilone by liver microsomes from different species and human UDP-glucuronosyltransferases” (Drug Metab Dispos, 2011).

Series [1] concerns the target T1, UDP-glucuronosyltransferase 1A7 (Homo sapiens, UniProt Q9HAW7).
T1 sequence (Q9HAW7 whole entry): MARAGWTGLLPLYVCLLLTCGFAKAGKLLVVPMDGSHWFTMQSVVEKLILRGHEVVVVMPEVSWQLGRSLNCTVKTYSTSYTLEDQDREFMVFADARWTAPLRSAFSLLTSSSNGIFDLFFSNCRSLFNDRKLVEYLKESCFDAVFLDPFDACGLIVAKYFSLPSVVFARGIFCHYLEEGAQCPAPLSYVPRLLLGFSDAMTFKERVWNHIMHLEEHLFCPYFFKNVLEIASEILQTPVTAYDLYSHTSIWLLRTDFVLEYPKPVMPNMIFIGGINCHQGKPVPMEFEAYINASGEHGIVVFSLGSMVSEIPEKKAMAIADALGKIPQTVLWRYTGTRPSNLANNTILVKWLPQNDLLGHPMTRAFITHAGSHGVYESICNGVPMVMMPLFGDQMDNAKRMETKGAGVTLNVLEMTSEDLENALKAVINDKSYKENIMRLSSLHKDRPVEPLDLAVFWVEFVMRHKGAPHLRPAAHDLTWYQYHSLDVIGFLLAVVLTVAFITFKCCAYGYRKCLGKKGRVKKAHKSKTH
Put plainly: Drug metabolism assessed as human recombinant UGT1A7-mediated irilone-O-5-monoglucuronide formation at 25 uM incubated for 5 mins prior to UDPGA addition measured after 90 mins by HPLC-DAD analysis. Format: ADME. The conditions noted are these: recombinant enzyme, 1.5 h.

For series [2], the target named is T2, UDP-glucuronosyltransferase 1A8 (Homo sapiens, UniProt Q9HAW9).
T2 sequence (Q9HAW9 whole entry): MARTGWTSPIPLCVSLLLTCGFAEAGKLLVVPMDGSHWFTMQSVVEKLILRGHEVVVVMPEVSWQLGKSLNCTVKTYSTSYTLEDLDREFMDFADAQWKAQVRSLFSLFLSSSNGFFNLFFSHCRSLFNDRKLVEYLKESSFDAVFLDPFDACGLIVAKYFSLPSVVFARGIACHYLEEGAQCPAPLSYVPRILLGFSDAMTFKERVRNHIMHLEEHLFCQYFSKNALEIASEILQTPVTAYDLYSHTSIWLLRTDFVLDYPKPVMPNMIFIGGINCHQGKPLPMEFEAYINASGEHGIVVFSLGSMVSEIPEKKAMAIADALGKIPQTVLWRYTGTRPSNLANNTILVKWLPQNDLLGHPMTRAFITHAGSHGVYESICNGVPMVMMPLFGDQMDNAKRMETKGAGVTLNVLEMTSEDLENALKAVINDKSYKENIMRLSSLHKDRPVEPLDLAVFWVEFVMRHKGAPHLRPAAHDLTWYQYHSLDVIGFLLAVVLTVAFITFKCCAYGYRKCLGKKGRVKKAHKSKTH
The series can be described thus: Drug metabolism assessed as human recombinant UGT1A8-mediated irilone-O-5-monoglucuronide formation at 25 uM incubated for 5 mins prior to UDPGA addition measured after 90 mins by HPLC-DAD analysis. The note with it: recombinant enzyme, 1.5 h. Type of series: ADME.

Series [3] concerns Liver microsome. The series can be described thus: Intrinsic clearance in Sprague-Dawley rat liver microsomes incubated for 5 mins prior to UDPGA addition measured after 90 mins. The conditions noted are these: 1.5 h. Type of series: ADME. Background: Liver microsomes are vesicles of endoplasmic reticulum, rich in cytochrome P450 enzymes.
The test system of series [4] is Liver microsome. The series can be described thus: Drug metabolism in Sprague-Dawley rat liver microsomes assessed as IRI-O-4'-monoglucuronide formation incubated for 5 mins prior to UDPGA addition measured after 90 mins by Eadie-Hoftsee plot analysis. Type of series: ADME. The conditions noted are these: 1.5 h.
For series [5], the target named is T3, UDP-glucuronosyltransferase 1A1 (Homo sapiens, UniProt P22309).
T3 sequence (P22309 whole entry): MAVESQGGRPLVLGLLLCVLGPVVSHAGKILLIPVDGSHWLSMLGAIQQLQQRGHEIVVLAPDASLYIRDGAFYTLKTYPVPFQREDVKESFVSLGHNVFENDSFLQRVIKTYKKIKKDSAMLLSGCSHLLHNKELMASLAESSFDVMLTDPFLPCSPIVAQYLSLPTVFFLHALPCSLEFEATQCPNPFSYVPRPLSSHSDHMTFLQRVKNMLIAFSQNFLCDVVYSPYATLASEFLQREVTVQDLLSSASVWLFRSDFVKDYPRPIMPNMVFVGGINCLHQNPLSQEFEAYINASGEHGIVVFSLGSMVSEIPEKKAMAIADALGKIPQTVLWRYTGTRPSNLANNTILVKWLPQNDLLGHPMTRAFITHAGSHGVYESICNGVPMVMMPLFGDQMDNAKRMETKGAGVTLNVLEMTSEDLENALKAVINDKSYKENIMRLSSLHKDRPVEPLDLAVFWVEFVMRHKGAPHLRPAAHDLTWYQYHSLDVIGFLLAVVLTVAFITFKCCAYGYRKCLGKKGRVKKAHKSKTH
The series can be described thus: Drug metabolism assessed as human recombinant UGT1A1-mediated irilone-O-4'-monoglucuronide formation at 25 uM incubated for 5 mins prior to UDPGA addition measured after 90 mins by HPLC-DAD analysis. Type of series: ADME. The conditions noted are these: recombinant enzyme, 1.5 h.

Series [6] deals with Liver microsome. The series can be described thus: Drug metabolism in human liver microsomes assessed as substrate inhibition of IRI-O-5-monoglucuronide formation incubated for 5 mins prior to UDPGA addition measured after 90 mins by Eadie-Hoftsee plot analysis. Format: ADME.
Series [7] is described as follows: Intrinsic clearance in pig liver microsomes incubated for 5 mins prior to UDPGA addition measured after 90 mins. Format: ADME, Sus scrofa. The note with it: 1.5 h.
Series [8] addresses T4, UDP-glucuronosyltransferase 1A9 (Homo sapiens, UniProt O60656).
T4 sequence (O60656 whole entry): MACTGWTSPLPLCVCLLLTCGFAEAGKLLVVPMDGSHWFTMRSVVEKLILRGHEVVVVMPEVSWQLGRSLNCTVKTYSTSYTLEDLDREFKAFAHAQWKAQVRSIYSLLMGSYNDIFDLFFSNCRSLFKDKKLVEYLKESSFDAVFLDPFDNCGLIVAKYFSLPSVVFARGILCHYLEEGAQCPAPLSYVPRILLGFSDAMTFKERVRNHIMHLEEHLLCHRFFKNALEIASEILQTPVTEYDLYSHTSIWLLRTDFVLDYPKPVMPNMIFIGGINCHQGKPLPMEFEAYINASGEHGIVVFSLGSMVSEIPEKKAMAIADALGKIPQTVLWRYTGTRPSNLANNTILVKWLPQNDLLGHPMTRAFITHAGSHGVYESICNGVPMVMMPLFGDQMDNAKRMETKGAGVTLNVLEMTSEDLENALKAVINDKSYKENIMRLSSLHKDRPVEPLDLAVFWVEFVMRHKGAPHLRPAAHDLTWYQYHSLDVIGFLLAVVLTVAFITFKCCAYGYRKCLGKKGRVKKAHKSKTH
The series can be described thus: Drug metabolism assessed as human recombinant UGT1A9-mediated irilone-O-5-monoglucuronide formation incubated for 5 mins prior to UDPGA addition measured after 90 mins by HPLC-DAD analysis. Type of series: ADME. The conditions noted are these: recombinant enzyme, 1.5 h.

With `O=c1c(-c2ccc(O)cc2)coc2cc3c(c(O)c12)OCO3`, the Drug metabolism entry in series [1], in series [2], in series [5] and in series [8] was “metabolite_detected” in each case. Besides, the CLH with Liver microsome [3] was 51000 µL/min/mg; in series [7] it was 71800 µL/min/mg. The Km in the series on Liver microsome [4] came to 124 µM. Also, the maximal velocity (Vmax) in the series on Liver microsome [4] stood at 1.33 nmol/mg/min. Further, the Ki on Liver microsome [6] is 96.9 µM.

The term Km denotes the substrate concentration at which the rate is half of its maximum. A word on the Vmax: it is the top rate of the reaction or transport when substrate is in excess.
